We go through 16 compounds from ChEMBL document CHEMBL3297711, “Application of encoded library technology (ELT) to a protein-protein interaction target: discovery of a potent class of integrin lymphocyte function-associated antigen 1 (LFA-1) antagonists” (Bioorg Med Chem, 2014).

pIC50: −log10 of the molar value. Activity calls are given as the source filed them. The calls are words filed in the database; no cut-off is given here.

One assay concerns the target T1, Integrin alpha-L (Homo sapiens, UniProt P20701).
T1 sequence (P20701 whole entry): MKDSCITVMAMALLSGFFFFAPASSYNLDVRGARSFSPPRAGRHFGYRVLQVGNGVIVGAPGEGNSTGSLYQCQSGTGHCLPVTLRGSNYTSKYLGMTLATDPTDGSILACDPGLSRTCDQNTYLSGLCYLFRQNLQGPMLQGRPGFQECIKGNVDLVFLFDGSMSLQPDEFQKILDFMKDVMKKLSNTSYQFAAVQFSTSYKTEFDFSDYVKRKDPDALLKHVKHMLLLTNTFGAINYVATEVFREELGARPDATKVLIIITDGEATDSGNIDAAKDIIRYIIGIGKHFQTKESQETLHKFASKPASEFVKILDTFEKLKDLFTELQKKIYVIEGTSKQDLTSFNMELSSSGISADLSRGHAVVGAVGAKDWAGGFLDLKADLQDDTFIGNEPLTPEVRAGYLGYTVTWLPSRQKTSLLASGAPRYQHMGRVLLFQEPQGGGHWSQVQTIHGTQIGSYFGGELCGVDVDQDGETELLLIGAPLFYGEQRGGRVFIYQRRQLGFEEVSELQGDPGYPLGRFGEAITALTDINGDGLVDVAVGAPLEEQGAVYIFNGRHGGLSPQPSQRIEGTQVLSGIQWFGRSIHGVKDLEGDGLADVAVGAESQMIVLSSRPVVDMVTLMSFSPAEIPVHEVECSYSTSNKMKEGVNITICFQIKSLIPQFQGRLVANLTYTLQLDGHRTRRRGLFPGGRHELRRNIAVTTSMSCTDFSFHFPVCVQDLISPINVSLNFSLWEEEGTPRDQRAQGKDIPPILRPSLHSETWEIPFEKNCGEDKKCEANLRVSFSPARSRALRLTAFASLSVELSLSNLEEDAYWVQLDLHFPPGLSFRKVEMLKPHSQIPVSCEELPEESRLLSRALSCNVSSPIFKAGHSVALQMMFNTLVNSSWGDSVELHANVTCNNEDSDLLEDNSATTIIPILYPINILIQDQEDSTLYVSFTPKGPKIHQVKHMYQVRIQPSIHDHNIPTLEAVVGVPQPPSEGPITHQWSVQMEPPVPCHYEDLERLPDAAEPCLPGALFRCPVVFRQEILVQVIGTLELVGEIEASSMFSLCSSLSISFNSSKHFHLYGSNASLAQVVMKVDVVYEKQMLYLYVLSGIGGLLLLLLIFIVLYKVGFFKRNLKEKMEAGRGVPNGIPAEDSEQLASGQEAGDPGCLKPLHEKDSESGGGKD
The experiment in a line: (§1) Antagonist activity at C-terminal 6xHis-tagged LFA-1 LBD (unknown origin) expressed in Escherichia coli assessed as inhibition of interaction with ICAM-1 preincubated for 30 mins followed by ICAM-1 addition measured after 60 mins by ELISA. (In general: In an ELISA, binding on a coated surface is turned into a signal by an enzyme label.)

Assay [1] deals with T2, Integrin alpha-L (Homo sapiens) (UniProt P20701).
T2 sequence (whole entry): T1 sequence (P20701 whole entry)
As to the kind of experiment: Allosteric antagonist activity at wild type LFA-1 (unknown origin) transfected in human K562 cells assessed as inhibition of cell adhesion to ICAM-1 at 50 uM incubated for 30 mins under dark condition by microplate fluorimetric analysis. The class given is cell-based.

Assay [2] concerns the target T2, Integrin alpha-L (Homo sapiens). Described as §1.
The target is the same in assay [3]. The experiment in a line: Antagonist activity at wild type LFA-1 in human Jurkat cells assessed as inhibition of PMA-stimulated cell adhesion to ICAM-1 at 50 uM incubated for 45 mins under dark condition by microplate fluorimetric analysis. The class given is cell-based.
Assay [4] concerns K562. As to the kind of experiment: Allosteric antagonist activity at LFA-1 K287C/K294C double mutant (unknown origin) transfected in human K562 cells assessed as inhibition of cell adhesion to ICAM-1 at 50 uM incubated for 30 mins under dark condition by microplate fluorimetric analysis in absence of DTT. The class given is cell-based.
Assay [5] deals with K562. The experiment in a line: Allosteric antagonist activity at LFA-1 K287C/K294C double mutant (unknown origin) transfected in human K562 cells assessed as inhibition of cell adhesion to ICAM-1 at 50 uM incubated for 30 mins under dark condition by microplate fluorimetric analysis in presence of DTT. The class given is cell-based.
For assay [6], the target named is T2, Integrin alpha-L (Homo sapiens). The experiment in a line: Binding affinity to LFA-1 (unknown origin) transfected in human K562 cells by FACS analysis relative to control. The assay is classed as cell-based. (In general: Flow cytometry measures light scatter and fluorescence of single cells or particles in a stream.)

In the case of `O=C(c1cccc(C(F)(F)F)c1)N1CC2CC1CN2c1nc(NCCc2ccc(Cl)c(Cl)c2)nc(NC2Cc3ccccc3C2)n1` (stereo not drawn), the negative-log IC50 (pIC50) on Integrin alpha-L is 6.45.
Still for that read-out and setting: the result for `CCNC(=O)C1(Nc2nc(NCCc3ccccc3)nc(N3CC4CC3CN4C(=O)c3cccc(C(F)(F)F)c3)n2)Cc2ccccc2C1` (stereo not drawn) reads 6.31; that for `CCNC(=O)C1(Nc2nc(NCCc3ccc(Cl)c(Cl)c3)nc(N3CCCC3)n2)Cc2ccccc2C1`, 4.89.
In the case of `CCNC(=O)C1(Nc2nc(N[C@@H](C)c3ccc(Br)cc3)nc(N3CC4CC3CN4C(=O)c3cccc(C(F)(F)F)c3)n2)Cc2ccccc2C1` (stereo partly drawn), the inhibition entry (in assay [1]; in assay [3]; with K562 [5]) was “Active” throughout. The inhibition result in assay [2] was “Dose-dependent effect”. The pIC50 on Integrin alpha-L is 7.80. Moreover, the inhibition result in the assay with K562 [4] was “inactive”.
In the case of `O=C(c1cccc(C(F)(F)F)c1)N1CC2CC1CN2c1nc(NCCc2ccc(Cl)c(Cl)c2)nc(NC2CCCC2)n1` (stereo not drawn), on Integrin alpha-L, the pIC50 was less than 5.00.
With `CCN1/C(=C/C=C/C2=[N+](CCCCCC(=O)NCCCCNC(=O)C3(Nc4nc(NCCc5ccc(Cl)c(Cl)c5)nc(N5CC6CC5CN6C(=O)c5cccc(C(F)(F)F)c5)n4)Cc4ccccc4C3)c3ccc(S(=O)(=O)O)cc3C2(C)C)C(C)(C)c2cc(S(=O)(=O)O)ccc21` (stereo not drawn), the pIC50 on Integrin alpha-L was 7.00. In assay [6], this compound displayed a fold change (FC) of 3.
As for `CCNC(=O)C1(Nc2nc(NCc3ccccc3)nc(N3CC4CC3CN4C(=O)c3cccc(C(F)(F)F)c3)n2)Cc2ccccc2C1` (stereo not drawn), the pIC50 at Integrin alpha-L was 5.10.
Same read-out and setting: the figure for `O=C(c1cccc(C(F)(F)F)c1)N1CC2CC1CN2c1nc(NCCc2ccc(Cl)c(Cl)c2)nc(NC2(C(=O)O)Cc3ccccc3C2)n1` (stereo not drawn) is 7.43.
The same measure, in the same setting: the result for `O=C(O)C1(Nc2nc(NCCc3ccc(Cl)c(Cl)c3)nc(N3CC4CC3CN4S(=O)(=O)c3cccc(C(F)(F)F)c3)n2)Cc2ccccc2C1` (stereo not drawn) reads 7.19.
On the same count and under the same terms, the figure for `CCNC(=O)C1(Nc2nc(NCC)nc(N3CC4CC3CN4C(=O)c3cccc(C(F)(F)F)c3)n2)Cc2ccccc2C1` (stereo not drawn) is less than 5.00.
With `CCN1/C(=C/C=C/C2=[N+](CCCCCC(=O)NCCCCNC(=O)C3(Nc4nc(NCCc5ccc(Cl)c(Cl)c5)nc(N5CC6CC5CN6S(=O)(=O)c5cccc(C(F)(F)F)c5)n4)Cc4ccccc4C3)c3ccc(S(=O)(=O)O)cc3C2(C)C)C(C)(C)c2cc(S(=O)(=O)O)ccc21` (stereo not drawn), the pIC50 on Integrin alpha-L was 7.55. This compound also yielded a fold change (FC) in assay [6] of 2.
Turning to `CCNC(=O)C1(Nc2nc(N[C@@H](C)c3ccc(Br)cc3)nc(N3CC4CC3CN4S(=O)(=O)c3ccccc3OC(F)(F)F)n2)Cc2ccccc2C1` (stereo partly drawn), the inhibition entry (in assay [1]; in assay [3]; with K562 [5]) was “Active” throughout. For the same compound, in assay [2], the inhibition entry was “Dose-dependent effect”. At Integrin alpha-L, the pIC50 is 6.93. Moreover, the inhibition result with K562 [4] was “inactive”.
For `CCNC(=O)C1(Nc2nc(N[C@@H](C)c3ccccc3)nc(N3CC4CC3CN4C(=O)c3cccc(C(F)(F)F)c3)n2)Cc2ccccc2C1` (stereo partly drawn), at Integrin alpha-L, the pIC50 was 6.74.
Regarding `CCNC(=O)C1(Nc2nc(NCCc3ccc(Cl)c(Cl)c3)nc(N3CC4CC3CN4C(=O)c3cccc(C(F)(F)F)c3)n2)Cc2ccccc2C1` (stereo not drawn), the inhibition result (in assay [1]; in assay [3]; in the assay on K562 [5]) was “Active” each time. In addition, in assay [2], the inhibition entry is “Dose-dependent effect”. Moreover, on Integrin alpha-L, the pIC50 is 7.64. Besides, in the assay with K562 [4], the inhibition entry is “inactive”.
Consider `CCNC(=O)C1(Nc2nc(N[C@H](C)c3ccccc3)nc(N3CC4CC3CN4C(=O)c3cccc(C(F)(F)F)c3)n2)Cc2ccccc2C1` (stereo partly drawn), for which the pIC50 at Integrin alpha-L is less than 5.00.
Turning to `CCNC(=O)C1(Nc2nc(NCCc3ccc(Cl)c(Cl)c3)nc(N3CC4CC3CN4S(=O)(=O)c3ccccc3OC(F)(F)F)n2)Cc2ccccc2C1` (stereo not drawn), the inhibition entry (in assay [1]; in assay [3]; in the assay with K562 [5]) was “Active” in each case. The inhibition entry in assay [2] was “Dose-dependent effect”. For the same compound, the pIC50 on Integrin alpha-L is 7.66. Moreover, the inhibition result in the assay with K562 [4] is “inactive”.

As a reminder, the pIC50 is the IC50 on a negative log10 scale, so that one unit is a factor of ten.
